# Values of other authors as cited in patent US20130344087A1, “COMBINATIONS OF ANTI-S1P ANTIBODIES AND SHPINGOLIPID PATHWAY INHIBITORS” (priority 2010, published 2013).
# Legend:
# ceramide synthase 2 = biological target: T1, ceramide synthase 2 (Homo sapiens, UniProt Q96G23); details: human pulmonary artery endothelial cells
# T1 construct: endogenous in cells; host or cells: human pulmonary artery endothelial cells
# T1 sequence (Q96G23 1-380): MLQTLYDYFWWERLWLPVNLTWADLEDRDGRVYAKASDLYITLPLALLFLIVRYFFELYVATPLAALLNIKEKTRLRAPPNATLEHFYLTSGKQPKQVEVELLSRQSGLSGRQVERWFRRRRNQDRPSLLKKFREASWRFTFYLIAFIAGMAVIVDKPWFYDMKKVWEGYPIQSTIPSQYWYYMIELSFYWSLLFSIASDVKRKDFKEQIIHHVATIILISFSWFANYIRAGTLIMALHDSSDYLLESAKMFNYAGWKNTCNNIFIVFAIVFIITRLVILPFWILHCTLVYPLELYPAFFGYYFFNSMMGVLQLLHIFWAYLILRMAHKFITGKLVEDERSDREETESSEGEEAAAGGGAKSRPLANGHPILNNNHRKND
# SPHK 2 = biological target: T2, SPHK 2 (Homo sapiens, UniProt Q9NRA0)
# T2 sequence (Q9NRA0 1-654): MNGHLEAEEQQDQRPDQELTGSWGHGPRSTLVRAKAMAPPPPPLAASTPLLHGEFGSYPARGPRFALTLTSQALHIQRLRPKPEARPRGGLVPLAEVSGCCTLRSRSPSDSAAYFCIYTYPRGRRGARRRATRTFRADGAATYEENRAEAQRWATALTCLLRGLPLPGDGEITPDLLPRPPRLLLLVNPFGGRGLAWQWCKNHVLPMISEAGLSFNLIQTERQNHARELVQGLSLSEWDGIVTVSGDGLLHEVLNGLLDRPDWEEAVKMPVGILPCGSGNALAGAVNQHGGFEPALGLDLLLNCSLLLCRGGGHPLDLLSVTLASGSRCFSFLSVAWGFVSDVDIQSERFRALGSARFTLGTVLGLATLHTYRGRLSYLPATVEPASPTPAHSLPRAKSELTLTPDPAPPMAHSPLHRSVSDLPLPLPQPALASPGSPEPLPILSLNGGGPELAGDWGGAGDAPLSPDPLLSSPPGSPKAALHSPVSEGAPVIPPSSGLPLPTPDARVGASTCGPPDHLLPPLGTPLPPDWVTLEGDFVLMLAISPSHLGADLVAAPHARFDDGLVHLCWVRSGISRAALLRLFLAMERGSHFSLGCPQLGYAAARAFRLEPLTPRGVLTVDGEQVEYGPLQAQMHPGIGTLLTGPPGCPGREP
# [1] = test system: human leukemia U937 cells
# [2] = test system: human leukemia Jurkat cells
# [3] = test system: leukemic blasts isolated from patients with acute myelogenous leukemia; details: blasts from AML patients
# [4] = test system: normal peripheral blood mononuclear leukocytes
# AML xenograft tumors = details: in vivo
# ERK2 = ERK2 (Homo sapiens, UniProt P28482); details: at concentrations up to 60 μM
# Chain of ERK2 (P28482 whole entry, species assumed): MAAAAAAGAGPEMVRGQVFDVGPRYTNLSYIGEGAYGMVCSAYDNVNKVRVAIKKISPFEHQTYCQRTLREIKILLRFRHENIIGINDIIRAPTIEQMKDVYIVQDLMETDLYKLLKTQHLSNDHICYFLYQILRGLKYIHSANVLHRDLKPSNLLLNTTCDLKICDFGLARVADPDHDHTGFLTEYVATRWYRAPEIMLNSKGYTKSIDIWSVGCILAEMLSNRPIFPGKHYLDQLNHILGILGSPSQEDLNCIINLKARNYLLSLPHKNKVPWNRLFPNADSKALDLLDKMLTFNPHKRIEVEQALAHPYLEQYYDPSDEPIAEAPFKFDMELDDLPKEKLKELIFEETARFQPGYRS
# PI3-kinase = details: at concentrations up to 60 μM
# PKCα = PKCα (Homo sapiens, UniProt P17252); details: at concentrations up to 60 μM
# [5] = test system: human cancer cell lines (T-24, MCF-7, NCl/ADR, and MCF-7NP); details: range across cell lines, read-out: IC50, inhibition of proliferation
smiles,measurement,setting,value
"CCCCCCCCc1ccc(CCC(N)(CO)CO)cc1.Cl [FTY720, 2-amino-2[2-(4-octylphenyl)ethyl]propane-1,3-diol hydrochloride]","cellular levels of dihydroceramides, ceramides, sphingosine, and S1P",ceramide synthase 2,decreased cellular levels
same,inhibition of ceramide synthase 2,ceramide synthase 2,inhibit ceramide synthase 2
same,levels of dihydrosphingosine and dihydrosphingosine 1-phosphate (DHS1P),ceramide synthase 2; mediated by SPHK1 activity,increased levels
"CCCCCc1ccc(/C=C/[C@H](O)[C@@H](CO)NC)cc1 [SK1-I, (2R,3S,4E)-N-methyl-5-(4′-pentylphenyl)-2-aminopent-4-ene-1,3-diol]",inhibition of SPHK 2,SPHK 2,does not inhibit
same,inhibition of PKC,PKC,does not inhibit
same,growth and survival of U937 cells,[1],decrease growth and survival
same,growth and survival of Jurkat cells,[2],decrease growth and survival
same,induction of apoptosis in leukemic blasts,[3],potently induces apoptosis
same,effect on normal peripheral blood mononuclear leukocytes,[4],sparing
same,growth of AML xenograft tumors,AML xenograft tumors,markedly reduces growth
same,S1P levels,S1P and ceramide levels,decreases S1P levels
same,levels of proapoptotic precursor ceramide,S1P and ceramide levels,increases levels
"Oc1ccc(Nc2nc(-c3ccc(Cl)cc3)cs2)cc1 [SPHK I2, 4-[[4-(4-chlorophenyl)-2-thiazolyl]amino]-phenol]",inhibition of ERK2,ERK2,no inhibition
same,inhibition of PI3-kinase,PI3-kinase,no inhibition
same,inhibition of PKCα,PKCα,no inhibition
same,IC50,[5],900 to 4600 nM
"CCCCCCCCCCCCCCC[C@H](O)[C@@H](N)CO [safingol, L-threo-dihydrosphingosine]",cytotoxicity to leukemia cells,leukemia cells,cytotoxic
